Test results reported in US8022225B2, “Triazole derivative” (Taisho Pharmaceutical Co., Ltd, priority 2004, dated 2011).

Legend:
[1] = target: T1, human Edg-1(S1P1) (Homo sapiens, UniProt P21453); assay: Cell system binding test: inhibition of [3H]-S1P binding to Edg-1(S1P1) gene transferred HEK-293 cells; settings: 10 μM compound, [3H]-S1P 10 nM, read-out: Cell system binding test % inhibition (10 μM)
T1 construct: expressed in transfected cells; host or cells: HEK-293

[2] = target: T1, human Edg-1(S1P1); assay: Membrane system binding test: inhibition of [33P]-S1P binding to the membrane fraction of Edg-1(S1P1) gene transferred HEK-293 cells; settings: 10 μM compound; [33P]-S1P 0.1 nM; membrane fraction of Edg-1(S1P1) gene transferred HEK-293 cells; read-out: Membrane system binding test % inhibition (10 μM)
Summary of the method: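 Membranes from HEK-293 cells transfected with Edg-1(S1P1) incubated 1 h at 30 °C with 0.1 nM [^33P]-S1P and compound at 10^−5 M (0.1% DMSO), pH 7.4 buffer with fatty acid-free BSA. Filter-bound radioactivity counted; inhibition rate calculated against no-compound binding, with untransfected-cell background subtracted.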

T1 sequence (P21453 whole entry): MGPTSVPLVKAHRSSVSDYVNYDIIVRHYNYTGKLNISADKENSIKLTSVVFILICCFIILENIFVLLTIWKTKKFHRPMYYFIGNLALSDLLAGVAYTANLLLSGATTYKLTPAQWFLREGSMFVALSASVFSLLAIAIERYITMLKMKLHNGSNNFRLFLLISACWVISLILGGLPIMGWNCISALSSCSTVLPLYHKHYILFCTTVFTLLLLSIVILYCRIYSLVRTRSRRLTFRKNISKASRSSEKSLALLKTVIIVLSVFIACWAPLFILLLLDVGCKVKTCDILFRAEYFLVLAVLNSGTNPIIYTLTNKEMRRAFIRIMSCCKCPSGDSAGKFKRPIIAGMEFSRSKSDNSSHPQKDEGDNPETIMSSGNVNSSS

inhibition at 10 µM [1] [%]	inhibition at 10 µM [2] [%]	Compound
100	99.7	CCn1c(OC)nnc1[C@@H](C)NS(=O)(=O)c1ccc(F)c(C(F)(F)F)c1 [Compound 321]
95.9	43.5	CCn1c(OC)nnc1[C@@H](C)NS(=O)(=O)c1cccc(Cl)c1F [Compound 322]
102	61.3	CCn1c(OC)nnc1[C@@H](C)NS(=O)(=O)c1ccc2c(c1)CCO2 [Compound 337]
103	69.4	CCn1c(OC)nnc1[C@@H](C)NS(=O)(=O)c1ccc2c(c1)OCCO2 [Compound 338]
99.4	99.4	CCn1c(OC)nnc1[C@@H](C)NS(=O)(=O)c1ccc2nsnc2c1 [Compound 341]
98.9	41.4	CCn1c(OC)nnc1[C@@H](C)NS(=O)(=O)c1ccc2c(c1)OCCCO2 [Compound 343]
102	65.8	CCn1c(OC)nnc1[C@@H](C)NS(=O)(=O)c1ccc2c(c1)OCCN2C [Compound 344]
101	62.8	CCn1c(OC)nnc1[C@@H](C)NS(=O)(=O)c1cccc(C(C)=O)c1 [Compound 355]
81.7	41.8	CCn1c(OC)nnc1[C@@H](C)NS(=O)(=O)c1cccc2cnccc12 [Compound 365]
97	41.8	CCn1c(OC)nnc1[C@@H](C)NS(=O)(=O)c1cc(C)sc1C [Compound 367]
102	85.1	CCn1c(OC)nnc1[C@@H](C)NS(=O)(=O)c1csc2ccccc12 [Compound 368]
105	102	CCn1c(OC)nnc1[C@@H](C)NS(=O)(=O)c1cc2ccccc2s1 [Compound 369]
102	61.2	CCn1c(OC)nnc1[C@@H](C)NS(=O)(=O)c1cc(Br)cc(C(F)(F)F)c1 [Compound 371]
105	94.3	CCn1c(OC)nnc1[C@@H](C)NS(=O)(=O)c1ccc(Br)c(C(F)(F)F)c1 [Compound 372]
92.6	54.3	CCn1c(OCCOC)nnc1[C@@H](C)NS(=O)(=O)c1ccc(Cl)cc1 [Compound 375]
97.9	90.3	CCn1c(OCC(C)(C)C)nnc1[C@@H](C)NS(=O)(=O)c1ccc(Cl)cc1 [Compound 377]
103	87.2	CCn1c(OCC2CCCCC2)nnc1[C@@H](C)NS(=O)(=O)c1ccc(Cl)cc1 [Compound 378]
99.7	93.4	CCn1c(OC(C)C)nnc1[C@@H](C)NS(=O)(=O)c1ccc(Cl)cc1 [Compound 379]
105	85.2	CCn1c(OCCCCCO)nnc1[C@@H](C)NS(=O)(=O)c1ccc(Cl)cc1 [Compound 380]
97.1	94.9	CCn1c(OCc2ccccc2)nnc1[C@@H](C)NS(=O)(=O)c1ccc(Cl)cc1 [Compound 381]
97.8	99.6	CCn1c(OC2CCCC2)nnc1[C@@H](C)NS(=O)(=O)c1ccc(Cl)cc1 [Compound 382]

inhibition at 10 µM [1] [%]	inhibition at 10 µM [2] [%]	Compound
82.2	66	CCN(CC)C(=O)COc1nnc([C@@H](C)NS(=O)(=O)c2ccc(Cl)cc2)n1CC [Compound 383]
104	93.5	C=CCCCOc1nnc([C@@H](C)NS(=O)(=O)c2ccc(Cl)cc2)n1CC [Compound 384]
99.9	90.1	CCn1c(OCC2CCC2)nnc1[C@@H](C)NS(=O)(=O)c1ccc(Cl)cc1 [Compound 385]
103	99.5	CCCOc1nnc([C@@H](Cc2ccccc2)NS(=O)(=O)c2ccc(Cl)cc2)n1CC [Compound 386]
102	99.3	CCn1c(OC2CCC2)nnc1[C@@H](C)NS(=O)(=O)c1ccc(Cl)cc1 [Compound 387]
104	103	CCn1c(OC2CCCCC2)nnc1[C@@H](C)NS(=O)(=O)c1ccc(Cl)cc1 [Compound 388]
96.3	89.6	CCn1c(OCC(C)C)nnc1[C@@H](C)NS(=O)(=O)c1ccc(Cl)cc1 [Compound 389]
101	99.8	CCn1c(OC)nnc1[C@@H](Cc1ccccc1)NS(=O)(=O)c1ccc(Cl)cc1 [Compound 390]
92.5	78.3	CCn1c(OCCC(C)C)nnc1[C@@H](C)NS(=O)(=O)c1ccc(Cl)cc1 [Compound 391]
95.6	85.1	CCn1c(OC2CCOC2)nnc1[C@@H](C)NS(=O)(=O)c1ccc(Cl)cc1 (some centres unmarked) [Compound 392]
82.4	65.3	CCn1c(OCCN2CCOCC2)nnc1[C@@H](C)NS(=O)(=O)c1ccc(Cl)cc1 [Compound 393]
82.9	76.9	CCn1c(OCCCN2CCOCC2)nnc1[C@@H](C)NS(=O)(=O)c1ccc(Cl)cc1 [Compound 394]
91.9	83.7	CCn1c(OCC(F)(F)F)nnc1[C@@H](C)NS(=O)(=O)c1ccc(Cl)cc1 [Compound 395]
87.9	83.3	CCCCOc1nnc([C@@H](C)NS(=O)(=O)c2ccc(Cl)cc2)n1CC [Compound 396]
88.6	92	CCn1c(OCCCC(F)(F)F)nnc1[C@@H](C)NS(=O)(=O)c1ccc(Cl)cc1 [Compound 397]
85.8	93.5	CCn1c(OCCCOC)nnc1[C@@H](C)NS(=O)(=O)c1ccc(Cl)cc1 [Compound 398]
88.5	90.9	CCOc1nnc([C@@H](C)NS(=O)(=O)c2ccc(F)c(C(F)(F)F)c2)n1CC [Compound 399]
92.8	84.8	CCOc1nnc([C@@H](C)NS(=O)(=O)c2ccc(Br)s2)n1CC [Compound 400]
92.8	87.2	CCOc1nnc([C@@H](C)NS(=O)(=O)c2ccc(Cl)c(Cl)c2)n1CC [Compound 401]
90.4	95.8	CCOc1nnc([C@@H](C)NS(=O)(=O)c2ccc3ccccc3c2)n1CC [Compound 402]
86.1	85.9	CCOc1nnc([C@@H](C)NS(=O)(=O)c2ccc(F)c(F)c2)n1CC [Compound 403]

inhibition at 10 µM [1] [%]	inhibition at 10 µM [2] [%]	Compound
91.2	90	CCOc1nnc([C@@H](C)NS(=O)(=O)c2ccc(C)c(Cl)c2)n1CC [Compound 404]
90.4	88.2	CCOc1nnc([C@@H](C)NS(=O)(=O)c2ccc(Br)c(F)c2)n1CC [Compound 405]
90.1	92.5	CCOc1nnc([C@@H](C)NS(=O)(=O)c2cc3ccccc3s2)n1CC [Compound 406]
94.7	81.9	CCOc1nnc([C@@H](C)NS(=O)(=O)c2ccc(F)c(Cl)c2)n1CC [Compound 407]
88.5	84.9	CCOc1nnc([C@@H](C)NS(=O)(=O)c2cccc(Br)c2)n1CC [Compound 408]
88.1	92.2	CCOc1nnc([C@@H](C)NS(=O)(=O)c2ccc(Br)cc2)n1CC [Compound 409]
96.4	86.1	CCOc1nnc([C@@H](C)NS(=O)(=O)c2ccc(C)c(C)c2)n1CC [Compound 410]
95.9	81.8	CCOc1nnc([C@@H](C)NS(=O)(=O)c2ccc(C)c(F)c2)n1CC [Compound 411]
99.9	89.1	CCOc1nnc([C@@H](C)NS(=O)(=O)c2ccc(Br)c(Br)c2)n1CC [Compound 412]
100	93.8	CCOc1nnc([C@@H](C)NS(=O)(=O)c2ccc([N+](=O)[O-])cc2)n1CC [Compound 413]
101	81	CCOc1nnc([C@@H](C)NS(=O)(=O)c2cccc(C(F)(F)F)c2)n1CC [Compound 414]
99.6	75.1	CCOc1nnc([C@@H](C)NS(=O)(=O)c2cccc(OC(F)(F)F)c2)n1CC [Compound 415]
100	77.7	CCOc1nnc([C@@H](C)NS(=O)(=O)c2cccc(OC(F)F)c2)n1CC [Compound 416]
97.9	64.8	CCOc1nnc([C@@H](C)NS(=O)(=O)c2cccc(OC)c2)n1CC [Compound 417]
99.5	70.4	CCOc1nnc([C@@H](C)NS(=O)(=O)c2ccc3c(c2)OCO3)n1CC [Compound 418]
93.3	50.1	CCOc1nnc([C@@H](C)NS(=O)(=O)c2ccc(OC)cc2)n1CC [Compound 420]
95.7	101	CCn1c(OC)nnc1[C@@H](Cc1ccc(Cl)cc1)NS(=O)(=O)c1ccc(Cl)cc1 [Compound 426]
97.5	67	CCn1c(OC)nnc1[C@@H](C)NS(=O)(=O)c1cc2ccccc2o1 [Compound 427]
101	99.2	CCOc1nnc([C@@H](C)NS(=O)(=O)c2ccc(Br)c(C)c2)n1CC [Compound 428]
